Measurements taken from the NIST ThermoML archive (doi:10.1016/j.jct.2019.07.011).
± gives the expanded uncertainty stated by the source.

Assay: xn = mol fraction of the nth substance listed
Conditions: Gas, Frequency=0.002 MHz, Spherical resonator

[He] [helium] + C
Conditions	speed of sound [m/s]
325 K, 5510.1 kPa, x2 = 0.95	474.34 ± 0.77
325 K, 6484.7 kPa, x2 = 0.8999	489.68 ± 0.8
325 K, 6498.1 kPa, x2 = 0.95	475.29 ± 0.78
325 K, 7001.3 kPa, x2 = 0.95	475.96 ± 0.78
325 K, 7483.3 kPa, x2 = 0.8999	491.54 ± 0.8
325 K, 7498.5 kPa, x2 = 0.95	476.75 ± 0.78
325 K, 8497.4 kPa, x2 = 0.8999	493.86 ± 0.8
325 K, 8512.5 kPa, x2 = 0.95	478.75 ± 0.78
325 K, 9494.2 kPa, x2 = 0.8999	496.64 ± 0.81
325 K, 9503.9 kPa, x2 = 0.95	481.25 ± 0.79
325 K, 10493 kPa, x2 = 0.8999	499.87 ± 0.81
325 K, 10502 kPa, x2 = 0.95	484.31 ± 0.79
325 K, 11469 kPa, x2 = 0.95	487.82 ± 0.8
325 K, 11475 kPa, x2 = 0.8999	503.57 ± 0.82
325 K, 12500 kPa, x2 = 0.8999	507.85 ± 0.83
325 K, 12517 kPa, x2 = 0.95	492.25 ± 0.8
325 K, 13295 kPa, x2 = 0.95	495.91 ± 0.81
325 K, 13503 kPa, x2 = 0.8999	512.52 ± 0.83
325 K, 14011 kPa, x2 = 0.95	499.58 ± 0.81
325 K, 14493 kPa, x2 = 0.8999	517.56 ± 0.84
325 K, 14716 kPa, x2 = 0.95	503.46 ± 0.82
325 K, 15294 kPa, x2 = 0.8999	521.98 ± 0.85
325 K, 15309 kPa, x2 = 0.95	506.94 ± 0.82
325 K, 15995 kPa, x2 = 0.8999	526.06 ± 0.85
325 K, 16003 kPa, x2 = 0.95	511.23 ± 0.83
325 K, 16485 kPa, x2 = 0.8999	529.05 ± 0.86
325 K, 16552 kPa, x2 = 0.95	514.81 ± 0.84
325 K, 16992 kPa, x2 = 0.8999	532.23 ± 0.86
325 K, 17002 kPa, x2 = 0.95	517.85 ± 0.84
325 K, 17513 kPa, x2 = 0.95	521.43 ± 0.85
325 K, 17520 kPa, x2 = 0.8999	535.66 ± 0.87
325 K, 17961 kPa, x2 = 0.95	524.66 ± 0.85
325 K, 17995 kPa, x2 = 0.8999	538.81 ± 0.87
325 K, 18490 kPa, x2 = 0.8999	542.22 ± 0.88
325 K, 18521 kPa, x2 = 0.95	528.85 ± 0.86
325 K, 18993 kPa, x2 = 0.8999	545.76 ± 0.88
325 K, 19024 kPa, x2 = 0.95	532.71 ± 0.86
325 K, 19504 kPa, x2 = 0.8999	549.41 ± 0.89
325 K, 19536 kPa, x2 = 0.95	536.75 ± 0.87
325 K, 19906 kPa, x2 = 0.8999	552.38 ± 0.9
350 K, 476.77 kPa, x2 = 0.95	491.9 ± 0.8
350 K, 489.4 kPa, x2 = 0.8999	503.05 ± 0.82
350 K, 985.81 kPa, x2 = 0.95	491.68 ± 0.8
350 K, 990 kPa, x2 = 0.8999	503.09 ± 0.82
350 K, 1981.5 kPa, x2 = 0.8999	503.39 ± 0.82
350 K, 1988.5 kPa, x2 = 0.95	491.41 ± 0.8
350 K, 3476.8 kPa, x2 = 0.8999	504.31 ± 0.82
350 K, 3557.7 kPa, x2 = 0.95	491.72 ± 0.8
350 K, 4993.3 kPa, x2 = 0.8999	506.12 ± 0.82
350 K, 5005.4 kPa, x2 = 0.95	492.68 ± 0.8
350 K, 6484 kPa, x2 = 0.8999	508.51 ± 0.83
350 K, 6520.9 kPa, x2 = 0.95	494.52 ± 0.81
350 K, 7487.6 kPa, x2 = 0.8999	510.6 ± 0.83
350 K, 8493.7 kPa, x2 = 0.8999	513.01 ± 0.83
350 K, 8537.3 kPa, x2 = 0.95	498.36 ± 0.81
350 K, 9502.1 kPa, x2 = 0.8999	515.83 ± 0.84
350 K, 10503 kPa, x2 = 0.8999	518.95 ± 0.84
350 K, 10534 kPa, x2 = 0.95	503.83 ± 0.82
350 K, 11996 kPa, x2 = 0.8999	524.33 ± 0.85
350 K, 12032 kPa, x2 = 0.95	509.02 ± 0.83
350 K, 13418 kPa, x2 = 0.95	514.87 ± 0.84
350 K, 13498 kPa, x2 = 0.8999	530.47 ± 0.86
350 K, 14498 kPa, x2 = 0.8999	535.04 ± 0.87
350 K, 14519 kPa, x2 = 0.95	519.93 ± 0.84
350 K, 15505 kPa, x2 = 0.8999	539.96 ± 0.88
350 K, 15599 kPa, x2 = 0.95	525.36 ± 0.85
350 K, 16500 kPa, x2 = 0.8999	545.16 ± 0.88
350 K, 16626 kPa, x2 = 0.95	530.93 ± 0.86
350 K, 17495 kPa, x2 = 0.8999	550.65 ± 0.89
350 K, 17512 kPa, x2 = 0.95	536.05 ± 0.87
350 K, 18437 kPa, x2 = 0.95	541.71 ± 0.88
350 K, 18509 kPa, x2 = 0.8999	556.57 ± 0.9
350 K, 19237 kPa, x2 = 0.95	546.81 ± 0.89
350 K, 19509 kPa, x2 = 0.8999	562.67 ± 0.91
350 K, 20020 kPa, x2 = 0.95	552 ± 0.89
350 K, 20352 kPa, x2 = 0.8999	568.05 ± 0.92
350 K, 20966 kPa, x2 = 0.95	558.46 ± 0.9
375 K, 480.89 kPa, x2 = 0.8999	517.61 ± 0.84
375 K, 508.08 kPa, x2 = 0.95	506.89 ± 0.82
375 K, 970.3 kPa, x2 = 0.95	506.94 ± 0.82
375 K, 974.52 kPa, x2 = 0.8999	518 ± 0.84
375 K, 1977.8 kPa, x2 = 0.8999	518.72 ± 0.84
375 K, 1994.9 kPa, x2 = 0.95	507.23 ± 0.82
375 K, 2982.4 kPa, x2 = 0.8999	519.78 ± 0.84
375 K, 3486.1 kPa, x2 = 0.95	508.11 ± 0.83
375 K, 4474.8 kPa, x2 = 0.8999	521.69 ± 0.85
375 K, 4994.3 kPa, x2 = 0.95	509.68 ± 0.83
375 K, 5993.9 kPa, x2 = 0.8999	524.5 ± 0.85
375 K, 6507.4 kPa, x2 = 0.95	511.94 ± 0.83
375 K, 7482.9 kPa, x2 = 0.8999	527.66 ± 0.86
375 K, 8485.9 kPa, x2 = 0.8999	530.3 ± 0.86
375 K, 8534.5 kPa, x2 = 0.95	516.24 ± 0.84
375 K, 9494.9 kPa, x2 = 0.8999	533.16 ± 0.86
375 K, 10491 kPa, x2 = 0.8999	536.22 ± 0.87
375 K, 10526 kPa, x2 = 0.95	521.64 ± 0.85
375 K, 11482 kPa, x2 = 0.8999	539.61 ± 0.88
375 K, 12041 kPa, x2 = 0.95	526.64 ± 0.85
375 K, 12500 kPa, x2 = 0.8999	543.46 ± 0.88
375 K, 13432 kPa, x2 = 0.95	531.87 ± 0.86
375 K, 13465 kPa, x2 = 0.8999	547.3 ± 0.89
375 K, 14475 kPa, x2 = 0.8999	551.75 ± 0.89
375 K, 14510 kPa, x2 = 0.95	536.35 ± 0.87
375 K, 15493 kPa, x2 = 0.8999	556.41 ± 0.9
375 K, 15609 kPa, x2 = 0.95	541.3 ± 0.88
375 K, 16440 kPa, x2 = 0.8999	560.93 ± 0.91
375 K, 16573 kPa, x2 = 0.95	545.93 ± 0.88
375 K, 17490 kPa, x2 = 0.8999	566.34 ± 0.92
375 K, 17518 kPa, x2 = 0.95	550.72 ± 0.89
375 K, 18172 kPa, x2 = 0.8999	569.92 ± 0.92
375 K, 18322 kPa, x2 = 0.95	555.02 ± 0.9
375 K, 18705 kPa, x2 = 0.8999	572.84 ± 0.93
375 K, 19198 kPa, x2 = 0.95	559.9 ± 0.91
